Experimental findings from patent US20150218516A1, “COMPOSITIONS AND METHODS FOR ENHANCING IMMUNE RESPONSES MEDIATED BY ANTIGEN-PRESENTING CELLS” (The Board of Regents of the University of Nebraska, priority 2007, published 2015) are described below.

Entries after “also recorded” stand apart in the source; their conditions may differ. Non-standard residues stand in square brackets, D forms with d. Residues, ends and D or L forms follow the SMILES beside them. No end group written: not given here.

Experiment [1] has as its system P815S (HBsAg transfectant) target cells. Put plainly: HBsAg-specific CTL response of immunized mice, 51Cr-release cytotoxicity assay. Type of experiment: in vivo, BALB/c mice. Conditions: for Ag-specific CTL response (in words): two or three s.c. injections at 21 day intervals, no added adjuvant; for % Specific Lysis: s.c. in PBS. How it is done:
Groups of six to eight BALB/c mice were given bilateral s.c. injections in the inguinal area with (100 al each side) of a PBS solution containing 50-100 μg of the peptides. Booster injections were given s.c. in the inguinal region at 21-day intervals. Sera for Ab analysis were obtained by retro-orbital bleeds of mice under CO2 narcosis.
Three weeks after secondary) (2° immunization and two weeks after tertiary)(3° immunization, two to three mice from each experimental group were sacrificed by cervical dislocation and their spleens removed aseptically. Pooled splenic single-cell suspensions were prepared in RPMI-1640 medium (Sigma, St. Louis, Mo.) containing 10% FBS (Hyclone, Salt Lake City, Utah) and the following supplements: 10 mM HEPES buffer, 50 μM 2-ME, 2 mM L-glutamine, 50 μg/ml gentamicin sulfate, 100 Um′ penicillin, and 50 μg/ml streptomycin (all supplements from Sigma). This supplemented complete medium is designated RP10-SC. For culture, 75×10^6 pooled spleen cells in 5 ml of RP10-SC were pipetted into a 25 cm^2 T-flask (Corning). Next, 5 ml of RP 10-SC containing 150 nM of synthetic, L^d MHC class I-restricted peptide, […] (SEQ ID NO:12) were added to the flask. The flasks were incubated undisturbed in an upright position at 37° C. in 5% CO2. After 4 days of incubation, the cells were recovered from the T-flasks, washed once by centrifugation in fresh RP10-SC, resuspended in 5 ml RP10-SC, counted, and adjusted to 5×10^6 viable cells/ml.
The specific cell target used for measuring CTL activity was P815S, a transfectant cell line of P815 (H-2^d) expressing the HBsAg (14). P815S was grown in RP10-SC medium containing 400 μg/ml geneticin disulfate (G418, Sigma). The parental H-2^d mastocytoma cell line, P815 (ATTC #TIB64) grown in RP10-SC medium, was used as a non-specific target for CTL assays to measure % non-specific lysis.
The target cells, either P815S or P815, were washed 2 times in RP10-SC. For labeling, 5×10^6 target cells were mixed with 250 μCi ^51Cr-sodium chromate[400-1200 Ci (14.8-44.4 TBq)]/[…]; NEN Dupont, Boston, Mass.) in a 1.0 ml volume in a 50 ml conical tube and incubated in a 37° C. water bath for 90 mins. After incubation, the labeled cells were washed 3 times by centrifugation using 15 ml volumes of fresh RP10-SC and allowed to stand at room temperature for 30 mins. The pelleted cells were resuspended in RP10-SC at 1×10^6 cells/ml.
The recovered splenic effector cells at 5×10^6 cells/ml were serially diluted in triplicate in wells of round-bottom 96 well plates (Corning, 25850) in a total volume of 100 al/well and using RP10-SC as the diluent. Next, 100 μl volumes of ^51Cr-labeled targets, P815S or P815, at 1×10^6 cells/ml were added to the wells. Maximum release (MR) wells contained 100 al of target cells and 100 al of 2% (v/v) Tween 20 while spontaneous release (SR) wells contained labeled cells in medium alone. Effector-to-target ratios of 50:1, 25:1, 12.5:1, and 6.25:1 were routinely employed. The plates were centrifuged at 400×g and incubated at 37° C. in 5% CO2 for 4 hrs. After incubation, the supernatant fractions in the wells were collected using a Skatron Supernatant Collection System (Skatron Instruments, Sterlin, Va.). The amount of ^51Cr radioactivity in the supernatant fractions was measured using a Wallac 1470 Wizard gamma counter (Turku, Finland).

The test system of experiment [2] is human PMNs. Kind of experiment: MPO release from human PMNs. The experiment is classed as cell-based. The following applies: for EC50: 50% maximum release of myeloperoxidase; for pD2 ± SE: −log EC50 (M), mean ± SE, n=3. The procedure: (§1) Statistical analysis of the values obtained from pharmacologic assays was performed using one-way analysis of variance (ANOVA).

Experiment [3] relates to human umbilical artery. Kind of experiment: Smooth muscle contraction of human umbilical artery. Type of experiment: cell-based. The following applies: for EC50: concentration resulting in 50% maximum contraction; for agonist behaviour relative to natural C5a (in words): umbilical artery contraction and MPO release assays; for pD2 ± SE: −log EC50 (M), mean ± SE, n=3. How it is done: as §1

For experiment [4], the system named is MUC1 peptide. Put plainly: MUC1 specific antibody isotype titers in immunized mice (ELISA). The experiment is classed as in vivo, C57BL6 mice. The procedure:
Preimmune sera were obtained from mice, which were subsequently immunized intraperitoneally with 100 μg of the indicated peptide with RIBI adjuvant (MPL+TDM+CWS) (Sigma Immunochemicals). Animals were boosted twice at two week intervals using the same injection procedure. Sera were obtained following three immunizations (at 6 weeks).
Anti-peptide antibody isotype titers were determined by enzyme-linked immunosorbent assay (ELISA) carried out in 96-well microtiter plates. The plates were coated with 100 μg/ml of appropriate peptide in PBS, pH 7.4, and incubated overnight. The wells were blocked with 5% dry milk in PBS pH 7.4 for at least two hours. Anti-peptide titers were determined using serial dilutions of sera as described above. After the plates were washed 4 times, 50 μl of a 1:100 dilution of rabbit anti-mouse IgA, IgG1, IgG2a, IgG2b, IgG3 and IgM (Zymed) was added to each well and incubated at 25° C. for 1 hour. The plates were washed 4 times with washing buffer and 50 μl of 1:500 goat anti-rabbit conjugated to […] (Zymed) was incubated at 37° C. for 1 hour. Again, the plates were washed 4 times with washing buffer and bound enzyme was detected by the addition of 50 μl 1 mg/ml p-nitrophenyl phosphate (Sigma) in 10% diethanolamine (Sigma) pH 9.4. The reaction was stopped by the addition of 50 μl of 0.5 M sodium hydroxide and absorbance values (A405) were determined on Titertek Multiskan (Flow Laboratories, Irvine, Scotland).
The following experiment was performed in order to compare the potency of the molecular adjuvant of the present invention with a widely used method for enhancing the immune response to peptide epitopes. The objective was a direct comparison of the response to a construct of MUC1 epitope-C5a agonist and the same epitope conjugated to keyhole limpet hemocyanine (KLH) in mice.
In general terms: ELISA stands for enzyme-linked immunosorbent assay.

The mark [5] stands for this setting: Effector:Target 6.25:1, boost day 21, spleen cells day 42.
The mark [6] stands for this setting: Effector:Target 12.5:1, boost day 21, spleen cells day 42.
Setting [7] is: Effector:Target 25:1, boost day 21, spleen cells day 42.
[8] abbreviates: Effector:Target 50:1, boost day 21, spleen cells day 42, restimulated 4 days with S28-39.
The mark [9] stands for this setting: mean titer of responders, sera screened against MUC1 peptide, five mice.

Regarding `CC[C@H](C)[C@H](N)C(=O)N1CCC[C@H]1C(=O)N[C@@H](CCC(N)=O)C(=O)N[C@@H](CO)C(=O)N[C@@H](CC(C)C)C(=O)N[C@@H](CC(=O)O)C(=O)N[C@@H](CO)C(=O)N[C@@H](Cc1c[nH]c2ccccc12)C(=O)N[C@@H](Cc1c[nH]c2ccccc12)C(=O)N[C@H](C(=O)N[C@@H](CO)C(=O)N[C@@H](CC(C)C)C(=O)N[C@@H](CCCNC(=N)N)C(=O)N[C@H](C(=O)N[C@@H](CCCNC(=N)N)C(=O)N[C@@H](CCCNC(=N)N)C(=O)N[C@@H](Cc1ccc(O)cc1)C(=O)N[C@@H](CO)C(=O)N[C@@H](Cc1ccccc1)C(=O)N[C@@H](CCCCN)C(=O)N1CCC[C@H]1C(=O)N[C@@H](CCSC)C(=O)N1CCC[C@H]1C(=O)N[C@@H](CC(C)C)C(=O)N[C@H](C)C(=O)N[C@@H](CCCNC(=N)N)C(=O)O)C(C)C)[C@@H](C)O` (H-IPQSLDSWWTSLRVRRYSFKPMPL[dA]R-OH), the “Ag-specific CTL response (in words)” value in experiment [1] is reported as “specific CTL response that was significantly above background levels; also recorded: robust CTL activity”. Also, in experiment [2], the EC50 (as a rule, the concentration at which the effect is half-maximal) came to 2150 nM and the “pD2 ± SE” value is on record as 5.61 ± 0.19. For the same compound, in experiment [3], the EC50 was found to be 180 nM, the “agonist behaviour relative to natural C5a (in words)” value is reported as “full agonists” and the “pD2 ± SE” value was determined as 6.67 ± 0.22.
In the case of “IPQSLDSWWTSL [HBsAg L^d MHC class I-restricted peptide S28-39, reference compound]”, the “% Specific Lysis” value in experiment [1] (setting [5]) was 3%; in experiment [1] (setting [6]) it was 3%; in experiment [1] (setting [7]), 5%; in experiment [1] (setting [8]), 7%.
`CC[C@H](C)[C@H](N)C(=O)N1CCC[C@H]1C(=O)N[C@@H](CCC(N)=O)C(=O)N[C@@H](CO)C(=O)N[C@@H](CC(C)C)C(=O)N[C@@H](CC(=O)O)C(=O)N[C@@H](CO)C(=O)N[C@@H](Cc1c[nH]c2ccccc12)C(=O)N[C@@H](Cc1c[nH]c2ccccc12)C(=O)N[C@H](C(=O)N[C@@H](CO)C(=O)N[C@@H](CC(C)C)C(=O)N[C@@H](Cc1ccc(O)cc1)C(=O)N[C@@H](CO)C(=O)N[C@@H](Cc1ccccc1)C(=O)N[C@@H](CCCCN)C(=O)N1CCC[C@H]1C(=O)N[C@@H](CCSC)C(=O)N1CCC[C@H]1C(=O)N[C@@H](CC(C)C)C(=O)N[C@H](C)C(=O)N[C@@H](CCCNC(=N)N)C(=O)O)[C@@H](C)O` (H-IPQSLDSWWTSLYSFKPMPL[dA]R-OH): the “% Specific Lysis” value turned out to be 1% in experiment [1] (setting [5]), 2% in experiment [1] (setting [6]), 4% in experiment [1] (setting [7]) and 6% in experiment [1] (setting [8]). Further, the “Ag-specific CTL response (in words)” value in experiment [1] was “lack of a CTL response”. The EC50 in experiment [2] turned out to be 1580 nM; in experiment [3] it was 210 nM. Also, the “pD2 ± SE” value in experiment [2] was 5.80 ± 0.04; in experiment [3] it was 6.68 ± 0.17. In addition, the “agonist behaviour relative to natural C5a (in words)” value in experiment [3] is on record as “full agonists”.
For the compound IPQSLDSWWTSLRR [reference compound], the “% Specific Lysis” value in experiment [1] (setting [5]) is given as 0%; in experiment [1] (setting [6]), 1%; in experiment [1] (setting [7]), 2%; in experiment [1] (setting [8]), 2%.
As for “YKQGGFLGL-KLH (YKQGGFLGL-{KLH}; also: conjugated to KLH) [reference compound]”, in experiment [4] (setting [9]), the “Ab titer IgA” value came out at 0, the “Ab titer IgG1” value worked out at 100, the “Ab titer IgG2a” value stood at 0 and the “Ab titer IgG2b” value stood at 0. Besides, in experiment [4] (setting [9]), the “Ab titer IgG3” value turned out to be 0 and the “Ab titer IgM” value is given as 5010. In experiment [4] (responders / mice immunized), the “number of responders IgG1” value is “(2/5)” and the “number of responders IgM” value was “(4/5)”.
